Assay results: ChEMBL document CHEMBL3045939, “Synthesis and evaluation of fused pyrimidine derivatives as anti-inflammatory, antiproliferative and antimicrobial agents” (Med Chem Res, 2012)
Values after ≈ are worked out from the molar mass of the structure shown.

Key:
Aspergillus flavus [1] = test: Antimicrobial activity against Aspergillus flavus ATCC 15517 assessed as reduction in log10 CFU/ml at MIC after 24 hr by time kill study relative to control; type: functional; design: scale not given: the % may be the effect or the level left
Rattus norvegicus [2] = test: Anti-inflammatory activity in Rattus norvegicus Wistar albino (rat) assessed as carrageenan-induced paw volume at 100 mg/kg, po administered 1 hr prior to carrageenan-challenge measured at 1 hr (reference value: 1.2075 +/- 0.0405 mm3); type: functional
Staphylococcus aureus [3] = test: Antimicrobial activity against Staphylococcus aureus ATCC 25923 assessed as reduction in log10 CFU/ml at MIC after 6 hr by time kill study relative to control; type: functional; design: scale not given: the % may be the effect or the level left
Candida albicans [4] = test: Antimicrobial activity against Candida albicans ATCC 24433 assessed as reduction in log10 CFU/ml at MIC after 24 hr by time kill study relative to control; type: functional; design: scale not given: the % may be the effect or the level left
Pseudomonas aeruginosa [5] = test: Antimicrobial activity against Pseudomonas aeruginosa ATCC 27853 assessed as reduction in log10 CFU/ml at MIC after 4 hr by time kill study relative to control; type: functional; design: scale not given: the % may be the effect or the level left
Candida albicans [6] = test: Antimicrobial activity against Candida albicans ATCC 24433 assessed as reduction in log10 CFU/ml at MIC after 12 hr by time kill study relative to control; type: functional; design: scale not given: the % may be the effect or the level left
Pseudomonas aeruginosa [7] = test: Antimicrobial activity against Pseudomonas aeruginosa ATCC 27853 after 24 hr by broth micro dilution assay; type: functional; details: ATCC 27853, 24 h
Escherichia coli [8] = test: Antimicrobial activity against Escherichia coli ATCC 25922 assessed as reduction in log10 CFU/ml at MIC after 6 hr by time kill study relative to control; type: functional; design: scale not given: the % may be the effect or the level left
Rattus norvegicus [9] = test: Anti-inflammatory activity in Rattus norvegicus Wistar albino (rat) assessed as carrageenan-induced paw volume at 100 mg/kg, po administered 1 hr prior to carrageenan-challenge measured at 4 hr (reference value: 1.2825 +/- 0.0862 mm3); type: functional
Aspergillus flavus [10] = test: Antimicrobial activity against Aspergillus flavus ATCC 15517 assessed as reduction in log10 CFU/ml at MIC after 2 hr by time kill study relative to control; type: functional; design: scale not given: the % may be the effect or the level left
[11] = Cytotoxicity against Homo sapiens (human) Chang cells after 24 hr by MTT assay; type: functional, cell-based
Pseudomonas aeruginosa [12] = test: Antimicrobial activity against Pseudomonas aeruginosa ATCC 27853 assessed as reduction in log10 CFU/ml at MIC after 12 hr by time kill study relative to control; type: functional; design: scale not given: the % may be the effect or the level left
HEp-2 = test: Cytotoxicity against Homo sapiens (human) Hep2 cells after 24 hr by MTT assay; type: functional, cell-based; details: HEp-2, 24 h
Candida albicans [13] = test: Antimicrobial activity against Candida albicans ATCC 24433 assessed as reduction in log10 CFU/ml at MIC after 4 hr by time kill study relative to control; type: functional; design: scale not given: the % may be the effect or the level left
Pseudomonas aeruginosa [14] = test: Antimicrobial activity against Pseudomonas aeruginosa ATCC 27853 assessed as reduction in log10 CFU/ml at MIC after 6 hr by time kill study relative to control; type: functional; design: scale not given: the % may be the effect or the level left
Rattus norvegicus [15] = test: Anti-inflammatory activity in Rattus norvegicus Wistar albino (rat) assessed as carrageenan-induced paw volume at 100 mg/kg, po administered 1 hr prior to carrageenan-challenge measured at 5 hr (reference value: 1.24 +/- 0.0754 mm3); type: functional
Escherichia coli [16] = test: Antimicrobial activity against Escherichia coli ATCC 25922 assessed as reduction in log10 CFU/ml at MIC after 4 hr by time kill study relative to control; type: functional; design: scale not given: the % may be the effect or the level left
Aspergillus flavus [17] = test: Antimicrobial activity against Aspergillus flavus ATCC 15517 assessed as reduction in log10 CFU/ml at MIC after 6 hr by time kill study relative to control; type: functional; design: scale not given: the % may be the effect or the level left
Staphylococcus aureus [18] = test: Antimicrobial activity against Staphylococcus aureus ATCC 25923 assessed as reduction in log10 CFU/ml at MIC after 24 hr by time kill study relative to control; type: functional; design: scale not given: the % may be the effect or the level left
Rattus norvegicus [19] = test: Anti-inflammatory activity in Rattus norvegicus Wistar albino (rat) assessed as carrageenan-induced paw volume at 100 mg/kg, po administered 1 hr prior to carrageenan-challenge measured at 3 hr (reference value: 1.225 +/- 0.0484 mm3); type: functional
Candida albicans [20] = test: Antimicrobial activity against Candida albicans ATCC 24433 assessed as reduction in log10 CFU/ml at MIC after 2 hr by time kill study relative to control; type: functional; design: scale not given: the % may be the effect or the level left
Escherichia coli [21] = test: Antimicrobial activity against Escherichia coli ATCC 25922 after 24 hr by broth micro dilution assay; type: functional; details: ATCC 25922, 24 h
Escherichia coli [22] = test: Antimicrobial activity against Escherichia coli ATCC 25922 assessed as reduction in log10 CFU/ml at MIC after 24 hr by time kill study relative to control; type: functional; design: scale not given: the % may be the effect or the level left
Rattus norvegicus [23] = test: Anti-inflammatory activity in Rattus norvegicus Wistar albino (rat) assessed as carrageenan-induced paw volume at 100 mg/kg, po administered 1 hr prior to carrageenan-challenge measured at 2 hr (reference value: 1.4175 +/- 0.1931 mm3); type: functional
Aspergillus flavus [24] = test: Antimicrobial activity against Aspergillus flavus ATCC 15517 after 48 hr by broth micro dilution assay; type: functional; details: ATCC 15517, 48 h
Staphylococcus aureus [25] = test: Antimicrobial activity against Staphylococcus aureus ATCC 25923 assessed as reduction in log10 CFU/ml at MIC after 2 hr by time kill study relative to control; type: functional; design: scale not given: the % may be the effect or the level left
Escherichia coli [26] = test: Antimicrobial activity against Escherichia coli ATCC 25922 assessed as reduction in log10 CFU/ml at MIC after 2 hr by time kill study relative to control; type: functional; design: scale not given: the % may be the effect or the level left
Staphylococcus aureus [27] = test: Antimicrobial activity against Staphylococcus aureus ATCC 25923 assessed as reduction in log10 CFU/ml at MIC after 4 hr by time kill study relative to control; type: functional; design: scale not given: the % may be the effect or the level left
Pseudomonas aeruginosa [28] = test: Antimicrobial activity against Pseudomonas aeruginosa ATCC 27853 assessed as reduction in log10 CFU/ml at MIC after 2 hr by time kill study relative to control; type: functional; design: scale not given: the % may be the effect or the level left
Aspergillus flavus [29] = test: Antimicrobial activity against Aspergillus flavus ATCC 15517 assessed as reduction in log10 CFU/ml at MIC after 12 hr by time kill study relative to control; type: functional; design: scale not given: the % may be the effect or the level left
Aspergillus flavus [30] = test: Antimicrobial activity against Aspergillus flavus ATCC 15517 assessed as reduction in log10 CFU/ml at MIC after 4 hr by time kill study relative to control; type: functional; design: scale not given: the % may be the effect or the level left
Escherichia coli [31] = test: Antimicrobial activity against Escherichia coli ATCC 25922 assessed as reduction in log10 CFU/ml at MIC after 12 hr by time kill study relative to control; type: functional; design: scale not given: the % may be the effect or the level left
HeLa = test: Cytotoxicity against Homo sapiens (human) HeLa cells after 24 hr by MTT assay; type: functional, cell-based
Candida albicans [32] = test: Antimicrobial activity against Candida albicans ATCC 24433 assessed as reduction in log10 CFU/ml at MIC after 6 hr by time kill study relative to control; type: functional; design: scale not given: the % may be the effect or the level left
Staphylococcus aureus [33] = test: Antimicrobial activity against Staphylococcus aureus ATCC 25923 after 24 hr by broth micro dilution assay; type: functional; details: ATCC 25923, 24 h
Pseudomonas aeruginosa [34] = test: Antimicrobial activity against Pseudomonas aeruginosa ATCC 27853 assessed as reduction in log10 CFU/ml at MIC after 24 hr by time kill study relative to control; type: functional; design: scale not given: the % may be the effect or the level left
Staphylococcus aureus [35] = test: Antimicrobial activity against Staphylococcus aureus ATCC 25923 assessed as reduction in log10 CFU/ml at MIC after 12 hr by time kill study relative to control; type: functional; design: scale not given: the % may be the effect or the level left
Candida albicans [36] = test: Antimicrobial activity against Candida albicans ATCC 24433 after 48 hr by broth micro dilution assay; type: functional; details: ATCC 24433, 48 h

**Q.** What does the source list for `O=c1c2cc(Cl)ccc2nc(-c2ccccc2)n1-c1ccc(F)cc1`?
**A.** Activity (Aspergillus flavus [1]): 100%; Activity (Rattus norvegicus [2]): 1.22 mm3; Activity (Staphylococcus aureus [3]): 100%; Activity (Candida albicans [4]): 100%; Activity (Pseudomonas aeruginosa [5]): 66.7%; Activity (Candida albicans [6]): 100%; MIC (Pseudomonas aeruginosa [7]): 0.78 µg/mL (≈ 2.22 µM); Activity (Escherichia coli [8]): 100%; Activity (Rattus norvegicus [9]): 1.275 mm3; Activity (Aspergillus flavus [10]): 11.1%; IC50 [11]: 16.6 µg/mL (≈ 47.3 µM); Activity (Pseudomonas aeruginosa [12]): 100%; IC50 (HEp-2): 10.8 µg/mL (≈ 30.7 µM); Activity (Candida albicans [13]): 66.7%; Activity (Pseudomonas aeruginosa [14]): 100%; Activity (Rattus norvegicus [15]): 1.21 mm3; Activity (Escherichia coli [16]): 66.7%; Activity (Aspergillus flavus [17]): 88.9%; Activity (Staphylococcus aureus [18]): 100%; Activity (Rattus norvegicus [19]): 1.21 mm3; Activity (Candida albicans [20]): 44.4%; MIC (Escherichia coli [21]): 0.39 µg/mL (≈ 1.11 µM); Activity (Escherichia coli [22]): 100%; Activity (Rattus norvegicus [23]): 1.2675 mm3; MIC (Aspergillus flavus [24]): 6.25 µg/mL (≈ 17.8 µM); Activity (Staphylococcus aureus [25]): 33.3%; Activity (Escherichia coli [26]): 33.3%; Activity (Staphylococcus aureus [27]): 66.7%; Activity (Pseudomonas aeruginosa [28]): 66.7%; Activity (Aspergillus flavus [29]): 66.7%; Activity (Aspergillus flavus [30]): 22.2%; Activity (Escherichia coli [31]): 100%; IC50 (HeLa): < 25 µg/mL; Activity (Candida albicans [32]): 100%; MIC (Staphylococcus aureus [33]): 0.39 µg/mL (≈ 1.11 µM); Activity (Pseudomonas aeruginosa [34]): 100%; Activity (Staphylococcus aureus [35]): 100%; MIC (Candida albicans [36]): 1.56 µg/mL (≈ 4.45 µM)
